The experiment relates to P. falciparum 3D7 growth, pLDH absorbance. The experiment is described as follows: P. falciparum 3D7 growth inhibition, dose response, strain 3D7 (AID 2305).

Our source for the IC50 values is PubChem BioAssay AID2305 (GlaxoSmithKline (GSK), 2010).

As usually defined, the IC50 is the concentration that inhibits the measured activity by half. Higher therefore signals weaker potency. On to `COc1cc2c(Nc3cccc(NC(=O)c4ccccc4)c3)ncnc2cc1OCCCN1CCOCC1`, for which the concentration for half-maximal inhibition (IC50) stood at 0.15 µM. With `CC1(C)N=C(N)N=C(N)N1OCc1cccc(C#N)c1` the figure was 0.01 µM; with `O=[N+]([O-])c1ccccc1C=NNc1c2c(nc3ccccc13)CCCC2`, 0.31 µM.

Molecule `Cc1nnsc1C(=O)Nc1cccc(-c2cccc(-c3nc4ccccc4[nH]3)c2)c1` yielded a half-maximal inhibitory concentration (IC50) of 0.44 µM.

As for `O=C(NCCCCN1CCC(c2cccc3ccccc23)CC1)c1ccc(-c2ccc(C(F)(F)F)cn2)cc1`, the IC50 was 0.87 µM. With `COc1c(C2=CCN(CCCCNC(=O)c3ccc(-c4ccc(C#N)cc4)cc3)CC2)c(C)cc2c1C(C)(C)CCC2(C)C`, the half-maximal inhibitory concentration (IC50) stood at 0.95 µM. For `COc1cc(C(=O)N2CC[C@@H](CCN3CCC4(CC3)CN(S(C)(=O)=O)c3ccccc34)C[C@H]2Cc2ccc(Cl)c(Cl)c2)cc(OC)c1OC`, the IC50 turned out to be 0.84 µM. `COc1ccccc1Cc1c(C)nc2nc(N)nc(N)c2c1C` returned an IC50 of 0.57 µM.

On to `Oc1ccc(-c2ccccc2)cc1CN1CCCCCC1`, for which the half-inhibitory concentration (IC50) was determined as 1.17 µM. The molecule `CCOc1ccc(C(=O)Nc2cc(Cl)ccc2O)cc1Cl` displayed a half-maximal inhibitory concentration (IC50) of 0.7 µM. `CCC[C@@H]([C@@H](CC1CCCCC1)C(=O)NC(C(=O)Nc1nccs1)C(CC)c1ccccc1)N(O)C=O` (some centres undefined) had an IC50 of 0.69 µM. This IC50 and that of the molecule before are within 1.5-fold of each other. `CCC[C@]1(C)CSc2ccccc2[C@@H](c2ccccc2)N1` showed a concentration for half-maximal inhibition (IC50) of 0.71 µM. The IC50 values of the last two molecules are within 1.5-fold of each other. The molecule `CN1CCN(Cc2cc3cc(NC(=O)/C=C/c4ccc(Cl)cc4)ccc3s2)CC1` had an IC50 of 0.77 µM. Regarding `COc1ccc(OC)c([C@H](O)[C@@H](C)NCc2cc(Cl)ccc2O)c1`, the IC50 amounted to 0.38 µM. Against the preceding molecule, the IC50 is about 2-fold lower.

The molecule `COc1ccc(CN2CCCN(Cc3cccc(C(=O)Nc4ccc(C(C)(C)C)cc4)c3)CC2)cc1` registered an IC50 of 0.89 µM.

Molecule `COc1ccc(C#Cc2ccc(-c3c(C)[nH]c(C)c(Cl)c3=O)cc2)cc1` returned an IC50 of 0.07 µM. `Nc1ncc(-c2ccccc2)cc1-c1cccc2ncccc12` returned an IC50 of 0.27 µM. `CC(C)CC(NC(=O)c1cccc(OCCN2CCOCC2)c1)C(=O)NC(/C=N/NC(=O)c1ccccc1)CCc1ccccc1` (centres undefined) had a half-maximal inhibitory concentration (IC50) of 0.25 µM. This IC50 and that of the molecule before are within 1.5-fold of each other. In the case of `CC(C)CNC(=O)c1cncc(-c2ccc(CNCCCc3ccccc3)cc2)c1`, the IC50 amounted to 0.77 µM. Against the preceding molecule, the IC50 is about 3.1-fold higher. In turn, `CN(C)CCN1CCN(CCCN2c3ccccc3Sc3ccc(C(F)(F)F)cc32)CC1` registered a half-maximal inhibitory concentration (IC50) of 0.76 µM. To `Cc1nc(-c2ccc(-c3ccc(C(=O)Nc4ccc(I)c(OCCN5CCCC5)c4)cc3)c(C)c2)no1` belongs 0.96 µM. With `O=C(NCCCCN1CCN(c2cccc(Cl)c2Cl)CC1)c1ccc2c(c1)CCN(C1CCC1)CC2` the figure was 0.75 µM; with `CN(C)C(CNC(=O)c1cc(-c2ccncc2)c(-c2ccc(Cl)c(O)c2)o1)c1ccccc1` (centres undefined), 0.84 µM. With `CCCC(C)NC(=O)c1cnn(-c2ccc(C(C)(C)C)cc2)c1OCc1ccc(Br)cc1` (centres undefined), the half-maximal inhibitory concentration (IC50) amounted to 1.06 µM. Molecule `CC(C)CNCc1ccc(-c2ccccc2CN(C(=O)NCCc2ccccc2)C2CCN(Cc3ccccc3)CC2)cc1` registered an IC50 of 0.88 µM. With `CC(C)=CCN1CCC(C(=O)Nc2ccc(-c3nc4ccccc4[nH]3)cc2)CC1` the figure was 0.91 µM; with `CC(C)c1cc(Oc2c(I)cc(CCN=C(N)N)cc2I)ccc1O`, 0.79 µM. `CNC(=O)COc1ccc(Nc2nnc(-c3ccc(C)c(S(=O)(=O)NCC4CCCO4)c3)c3ccccc23)cc1` (centres undefined): the half-inhibitory concentration (IC50) turned out to be 0.93 µM. The IC50 values of the last two molecules are within 1.5-fold of each other. Molecule `O=c1cc(-c2ccc3ccccc3c2)[nH]c2ccccc12` gave an IC50 of 1.16 µM. This IC50 and that of the molecule before are within 1.5-fold of each other.

`CN1CCC(c2cc3c(cc2Br)CCN3C(=O)Nc2ccc(-c3ccncc3)c(Cl)c2)CC1` showed an IC50 of 1.01 µM. `O=C(Cc1cccs1)NCC(c1ccccc1Cl)c1c[nH]c2ccccc12` (centres undefined) yielded an IC50 of 1.15 µM.

As for `CS(=O)(=O)c1ccc(CCNCc2ccc(-c3ccc(CNC4Cc5ccccc5C4)cc3)nc2)cc1`, the IC50 was 0.76 µM. Molecule `O=C(/C=C/c1ccc(Cl)c(Cl)c1)NCCCCCN1CCC(c2c[nH]c3ccc(O)cc23)CC1` yielded a concentration for half-maximal inhibition (IC50) of 0.89 µM.

`CCN1CCN(Cc2ccc(-c3ccc(NS(=O)(=O)c4cccc5cccnc45)cc3)cc2)CC1`: the IC50 was 0.92 µM.

`CN1CC=C(C=Cc2c[nH]c3ccccc23)CC1` had an IC50 of 1.34 µM. `Cc1ccc(Oc2cnn(C)c(=O)c2Nc2cccc(C(=O)NCCc3ccccn3)c2)c(C)c1`: the IC50 was 0.49 µM. Turning to `Cc1cc(Nc2ccc(C(C)(C)C)cc2)c2[nH]ncc2n1`, the IC50 was 1.16 µM. Against the preceding molecule, the IC50 is about 2.4-fold higher. `COc1ccc(C(c2ccc(N(C)C)cc2)c2ccc(N(C)C)cc2)cc1` displayed an IC50 of 0.06 µM.

The molecule `Cc1cc(NCCc2ccccc2)nc(/N=C(\N)Nc2cccc(F)c2)n1` gave a concentration for half-maximal inhibition (IC50) of 0.9 µM. To `FC(F)(F)c1cccc(CNC2CCN(CC3CCCCC3)CC2)c1` belongs 0.58 µM; to `CN1CCC(N(Cc2ccc(-c3ccc(Cl)cc3)cc2)C(=O)Cn2c(CCc3cccc(F)c3F)cc(=O)c3ccccc32)CC1`, 0.86 µM; to `CC(Cc1ccc(NC(=O)[C@@H](C)NCCc2cccc(Cl)c2)cc1)NCCc1cccc(Cl)c1` (some centres undefined), 0.78 µM.

For the molecule `CCCCCN1C(=O)N(c2ccc(Cl)c(Cl)c2)C(N(O)C(=O)Nc2ccc(Cl)c(Cl)c2)C1(C)C` (centres undefined), the IC50 was determined as 0.55 µM. To `COc1ccc2nccc([C@@H](O)CN3CCC(NC(=O)COc4nc(SCc5ccc(F)cc5)nc5c4CCC5)CC3)c2c1` belongs 0.59 µM. To `c1cncc(CCNCc2cccc(-c3ccc(-c4nc5ccccc5[nH]4)s3)c2)c1` belongs 0.2 µM. Turning to `CC(=O)Nc1ccc(S(=O)(=O)Nc2ccc(Nc3nc(C)cc(N4CCCCC4)n3)cc2)cc1`, the half-maximal inhibitory concentration (IC50) was found to be 0.78 µM. Regarding `Cc1c(CNCCN2CCCCC2)c(C(=O)O)c(C)n1Cc1ccc(Cl)cc1`, the IC50 came out at 0.42 µM. With `COc1ccc(-c2nc3c4cc(I)ccc4c4ccccc4c3[nH]2)cc1` the figure was 1.1 µM; with `COc1ccc2ncc(F)c(CCN3C[C@H](CNCc4cc(F)c5c(c4)NC(=O)CO5)[C@H](O)C3)c2n1`, 0.67 µM.

With `N#Cc1cc(C(=O)c2cc(Cl)ccc2O)cn(-c2cc(Cl)cc(Cl)c2)c1=O`, the half-inhibitory concentration (IC50) came to 0.85 µM. The IC50 values of the last two molecules are within 1.5-fold of each other.

`CC(C)(Cc1ccc(Cl)cc1)NCCCCCCNCCc1ccc(O)c(O)c1` gave an IC50 of 1.2 µM. In the case of `CCOc1cc(Cc2cnc(N)nc2N)cc(Br)c1OC`, the half-maximal inhibitory concentration (IC50) was determined as 1.44 µM. `COc1ccc(-n2ccnc2SCC(=O)Nc2cc(Cl)ccc2OC)c(OC)c1` had a half-maximal inhibitory concentration (IC50) of 0.73 µM. `CCCCCCCc1[nH]c2ccccc2c(=O)c1C` registered an IC50 of 0.51 µM. Molecule `CCCCNC(=O)[C@H](CC1CCCCC1)NC(=O)c1ccc(O)c(-c2cccc(C(F)(F)F)c2)c1` returned a 50% inhibitory concentration (IC50) of 0.77 µM. To `Cc1cc(Oc2ccc(-n3ccnc3)cc2)nc(N2CCN(CCCN3CCCC3)CC2)n1` belongs 0.93 µM; to `O=C(Nc1ccc(OC2CCN(Cc3ccsc3)C2)c(Cl)c1)c1ccc2ncccc2c1` (centres undefined), 0.97 µM. For `COc1cc(C(=O)NC2CCN(Cc3ccccc3)CC2)ccc1-c1nc2c(Cl)cc(C(F)(F)F)cc2[nH]1`, the IC50 was 0.67 µM. For the molecule `CCCCCN1CCCCC(NS(=O)(=O)c2ccc(C(=O)Nc3cccc(C(F)(F)F)c3)cc2)C1` (centres undefined), the 50% inhibitory concentration (IC50) came out at 0.75 µM. In the case of `O=C(/C=C/c1ccc(Cl)c(Cl)c1)N1CCC(CN2CCC(c3c[nH]c4ccncc34)CC2)CC1`, the concentration for half-maximal inhibition (IC50) was 0.73 µM. Molecule `COC(=O)/C=C/c1ccc(CCC(C)NCC(O)c2cccc(Cl)c2)cc1` (centres undefined) came in with a half-inhibitory concentration (IC50) of 0.94 µM.

In turn, `CCCC(C)Nc1nc(C)cc(N[C@@H](CC(C)C)C(=O)Nc2ccc(OC)cc2)n1` (some centres undefined) registered an IC50 of 0.87 µM. Take `Clc1ccc2nc(-c3cccnc3)[nH]c2c1`: the IC50 was found to be 0.04 µM.

With `CCCc1ccc(Cc2cnc3nc(N)nc(N)c3c2C)cc1`, the IC50 stood at 0.28 µM.

`Nc1c2c(nc3ccc(NC(=O)c4ccccc4)cc13)CCCC2` showed an IC50 of 0.61 µM. Against the preceding molecule, the IC50 is about 2.2-fold higher. In turn, `Cc1ccc(C)c(S(=O)(=O)Nc2ccc(Br)cc2C(=O)Nc2cccc(C(F)(F)F)c2)c1` yielded a 50% inhibitory concentration (IC50) of 1.21 µM. As for `Cc1cccc(CC2CC(=O)N(c3ccc([N+](=O)[O-])cc3)C2=O)c1` (centres undefined), the IC50 stood at 0.2 µM. In turn, `CN(CCCc1c[nH]c2ccccc12)CCC1CCC(NC(=O)/C=C/c2ccc(Cl)c(Cl)c2)CC1` (centres undefined) showed an IC50 of 0.65 µM. Consider `O=C(/C=C/c1ccc(Cl)c(Cl)c1)NC1CCC(CN2CCC(c3c[nH]c4ccccc34)CC2)CC1` (centres undefined), for which the IC50 is 0.23 µM. Consider `NC(N)=Nc1ccc(CCc2ccc(N=C(N)N)cc2)cc1`, for which the half-inhibitory concentration (IC50) is 0.29 µM.

As to `CC(=O)Nc1ccc(OCCN(CC(F)(F)F)c2ccc(C#N)cc2C(F)(F)F)cc1`, the IC50 was 0.77 µM. The molecule `c1cncc(Oc2ccc(Nc3ccnc4cc(-c5cccc(CN6CCOCC6)c5)ccc34)cc2)c1` had a half-maximal inhibitory concentration (IC50) of 0.31 µM. Molecule `CC(C)CCCC(C)(C)NC[C@@H](O)[C@H](Cc1ccccc1)NC(=O)c1cccc(CCC2CC2)c1` came in with an IC50 of 0.8 µM. Molecule `CN1CCC(N2CCN(Cc3cccc(-c4ccc(-c5nc6ccc(C(F)(F)F)cc6[nH]5)cc4)c3)CC2)CC1` showed a concentration for half-maximal inhibition (IC50) of 0.14 µM. In turn, `CC(=NNC(=S)NC(c1ccccc1)c1ccccc1)c1ccccn1` gave an IC50 of 0.9 µM. As to `O=C(/C=C/c1ccc(Cl)c(Cl)c1)NCCCCCN1CCC(NC(=S)Nc2ccc(Cl)cc2)CC1`, the half-inhibitory concentration (IC50) was determined as 0.44 µM. In turn, `CCCNC(=O)c1cncc(-c2ccc(CNC3Cc4ccccc4C3)cc2)c1` displayed a half-maximal inhibitory concentration (IC50) of 0.85 µM. `CCCN1CCN(CCNC(=O)c2cccc(Nc3nccc(Nc4ccc(Oc5ccccc5)cc4)n3)c2)CC1` yielded a concentration for half-maximal inhibition (IC50) of 0.24 µM. For `O=C(Nc1ccc(Cn2ncc(N3CCCNCC3)c(Cl)c2=O)cc1)Nc1cccc(C(F)(F)F)c1`, the 50% inhibitory concentration (IC50) was 0.64 µM. This IC50 lies about 2.7-fold higher than the previous one. With `Cc1cc(CN2CCC(Nc3ncc(-c4ccsc4)c4nc(C(F)(F)F)ccc34)CC2)no1` the figure was 1.1 µM; with `Cc1ccc(NC(=O)c2ccc(N3CCN(c4ccncc4)CC3)cn2)cc1F`, 1.57 µM. `Oc1ccc(CCNCCCCCCNCCc2ccc(-c3ccccc3)cc2)cc1O` had an IC50 of 0.6 µM.

Molecule `COc1ccc(-c2c(-c3ccc(OCc4ccccc4)cc3O)n[nH]c2C(F)(F)F)cc1` gave a concentration for half-maximal inhibition (IC50) of 1.17 µM.

Molecule `COc1cccc(C(=O)NCCc2cccc(Cl)c2)c1Oc1ccccc1` gave a concentration for half-maximal inhibition (IC50) of 0.84 µM. The molecule `NCC(=O)c1cc2c(cc1N)OCCO2` came in with a half-inhibitory concentration (IC50) of 1.36 µM.

`Nc1nccc2ccc(OC3CCCCC3)cc12` had a 50% inhibitory concentration (IC50) of 0.6 µM. In turn, `Cn1cnc2c(Nc3ccncc3)nc(-c3ccc(OC(F)(F)F)cc3)nc21` gave an IC50 of 1.1 µM.

For the molecule `CC(=O)c1ccc(NC(=O)CSc2nc(-c3ccccc3Cl)ns2)cc1`, the 50% inhibitory concentration (IC50) came to 1.13 µM. In turn, `CCCc1cc(Cc2cnc(N)nc2N)cc2c1OC(C)(C)C2` had a half-inhibitory concentration (IC50) of 1.08 µM.
